These are literature values, as cited in PMC12169662, “De Novo-Designed APC/C Inhibitors Provide a Rationale for Targeting RING-Type E3 Ubiquitin Ligases” (Journal of Medicinal Chemistry, 2025).

This data set has as its target APC/C. As to conditions: determined by the same methodology; ref not given; read-out: K i of apcin; cited from earlier work. How it is done: To quantify the inhibitory effectiveness of H6, its IC50 was determined. To this end, we performed in vitro APC/C ubiquitination assays in the presence of H6 titrated from 0.01 to 100 μM (Figure S17B). […] To distinguish between competitive and noncompetitive inhibition, we determin ...

Take `Cc1ncc([N+](=O)[O-])n1CCOC(=O)NC(Nc1ncccn1)C(Cl)(Cl)Cl` (stereo not shown) [apcin]: the Ki was 23 µM.
